Assay results from patent US20070015771A1, “Lonidamine analogs” (Threshold pharmaceuticals, Inc., priority 2004, published 2007).
Like-named read-outs stand apart in the source and are kept apart here.

Assays:
PWR-1E cells = assay: Antiproliferation assay 3 days, PWR-1E cells (Example 49); format: cell-based; conditions: read-out: PWR1e cell line IC50
Method: (§1) To determine the effect of lonidamine analogs thereof on cell proliferation, the antiproliferative activity of these compounds was tested in a multi-well Alamar Blue based assay (at 3 days). Cell growth in the presence and absence of the test compound was compared, as measured by a fluoresence plate reader at excitation 550 nm and emission 590 nm (see Biosource International Inc., Tech Application Notes, Use of Alamar Blue in the measurement of Cell Viability and Toxity, Determining IC50). The following cell lines were tested: PWR-1E cells ((ATCC CRL-11611), 3500 cells/well/200 μl in Keratinocyte SFM medium (Gibco Products, Invitrogen Corporation, Carlsbad, Calif.)); DU-145 cells ((ATCC HTB-81), 4000 cells/well/200 μl in MEM Eagles medium (ATCC, Manassas, Va.)); PC3 cells ((ATCC CRL-1435), 4000 cells/200 μl in Modified HAM's F12 medium (ATCC, Manassas, Va.)); PNt2 cells ((Sigma-Aldrich, 95012613-1 VL), 4000 cells/well/200 μl in RPMI medium (Gibco Products, Invitrogen Corporation, Carlsbad, Calif.), BPH-1 ((DSMZ ACC-143), 4000 cells/well/200 μl in RPMI medium (Gibco Products, Invitrogen Corporation, Carlsbad, Calif), and NCI-H460 cells ((ATCC HTB-177), 4000 cells/well/200 μl in RPMI medium (Gibco Products, Invitrogen Corporation, Carlsbad, Calif.)). The cells were seeded in a 96 well plate in a medium specified above. After 24 hours, these plates were divided into 2 groups—Control group and 3 day treatment group. A test compound was added to each plate in the treatment groups at concentrations of […] as tabulated in Table 1 (in 2 μl 1 of 100% DMSO, final DMSO concentration 1% in all wells). For NCI-H460 cells, test compounds were added to each plate in the treatment groups at concentrations of 600, 300, 100, 30, 10, 3, and 1 μM (in 2 μl of 100% DMSO, final DMSO concentration 1% in all wells). The cells in the 3 day treatment group were incubated for 3 days, followed by staining with AlamarBlue. In the Control group, AlamarBlue was added to the plate at (i) day 0 and (ii) day 3 and measured to establish the control reading. […] For the NCI-H460 cells, the capacity of the cells to proliferate was measured 5 hours after addition of AlamarBlue using the same fluorescence plate reader as stated above.

NCI-H460 cells = assay: Antiproliferation assay 3 days, NCI-H460 cells; format: cell-based; conditions: read-out: NCI-H460 cell line IC50
Method: as §1

SH rat prostate = assay: 5 day systemic administration in male SH rats, prostate; format: in vivo; set-up: inhibition in vivo: dose or concentration left out as unconfirmed; conditions: for inhibition in vivo: Rattus norvegicus, po, 144 h, read-out: Prostate shrinkage; for Prostate shrinkage: male SH rats, oral daily for 5 days at 50 mg/ml, day 6
Method: (§2) The effect of test compounds (lonidamine and lonidamine analogs) on the SH rat prostate was determined as follows. The test compound was orally administered daily for 5 days to male, SH rat, (n=6, 14 weeks old, Charles River Labs) at 50 mg/ml concentrations (as a 0.5% carboxymethylcellulose formulation). The control rats received an equal amount of the vehicle ([…]). Blood samples were collected 2 hours after administration on day 6, for pharmokinetic analysis of the compounds. On day 6 the rats were sacrificed and the entire prostate and the individual lobes (e.g., the ventral, dorso-lateral, and anterior lobes) were removed and weighed to measure absolute weights. Relative weights of prostate and individual lobes were calculated by dividing the absolute weight by the total body weight of the […]. Relative weights of the entire prostate, the dorsal prostate, and the ventral prostate were calculated by dividing the absolute weight by the total weight of the mouse. The histomorphology of the prostate was also analyzed and compared to that of the control or untreated prostate.

testes = assay: 5 day systemic administration in male SH rats, testis; format: in vivo, rat; set-up: inhibition in vivo: dose or concentration left out as unconfirmed; conditions: for inhibition in vivo: Rattus norvegicus, po, 144 h, read-out: Testis shrinkage; for Testis shrinkage: male SH rats, oral daily for 5 days at 50 mg/ml, day 6
H460 cells = assay: Antiproliferation assay (Alamar Blue), H460 cells; format: cell-based
Method: To determine the effect of lonidamine and analogs thereof on cell proliferation, the antiproliferative activity of these compounds was tested in a multi-well Alamar Blue based assay (at 2 h and 3 days). Cell growth in the presence and absence of the test compound (compounds 1-22) was compared, as measured by a fluorescence plate reader at excitation 550 nm and emission 590 nm (see Biosource International Inc., Tech Application Notes, Use of Alamar Blue in the measurement of Cell Viability and Toxicity, Determining IC50). H460 cells (ATCC HTB-177 ([…]), 4,000 cells/well/200 μl) and LNCap cells (ATCC CRL-1740, 6,000 cells/well/200 μl) were seeded in a 96 well plate in RPMI medium (Invitrogen Corporation, Carlsbad, Calif.). After 24 hours, these plates were divided into 3 groups—Control group, 2 h treatment group and 3 day treatment group. In the 2 h treatment group, after 2 h the cells were rinsed to remove the test compound and incubated for 3 days, followed by staining with AlamarBlue. The cells in the 3 day treatment group were incubated for 3 days, followed by staining with AlamarBlue. In the Control group, AlamarBlue was added to the plate at (i) day 0 and (ii) day 3 and measured to establish the control reading.

[1] = 5 day systemic administration in male SH rats, pharmacokinetic blood samples; format: in vivo, rat; conditions: oral daily for 5 days at 50 mg/ml, blood 2 hours after administration
Method: as §2

[2] = Homo sapiens, PWR-1E, 72 h, 3 day treatment
[3] = Homo sapiens, NCI-H460, 72 h, 3 day treatment
[4] = 3 day treatment, read-out: GI50 H460 cell 3 days
[5] = read-out: GI50 H460 cell 2 hr, 2 h treatment then 3 days incubation

Row | SMILES | IC50 (PWR-1E cells; 3 day treatment) [µM] | IC50 (PWR-1E cells; Homo sapiens, PWR-1E, 72 h) [µM] | IC50 (NCI-H460 cells; Homo sapiens, NCI-H460, 72 h) [µM] | other results
1 | O=C(NO)c1nn(Cc2ccc(Cl)cc2Cl)c2ccc(F)cc12 [Compound 47] | 5.6 |  |  | 
2 | O=C(O)c1cn(Cc2ccc(Cl)cc2Cl)c2ccccc12 [Compound 78] |  | 22 | 89 | inhibition in vivo (SH rat prostate): 10.1%; inhibition in vivo (testes): 5.7%
3 | O=C(O)c1nn(Cc2cc3c(cc2Cl)OCO3)c2ccccc12 [Compound 69] |  | 145 |  | 
4 | CONC(=O)c1nn(Cc2ccc(Cl)cc2Cl)c2ccc(C)cc12 [Compound 57] | 39 |  |  | 
5 | OCc1nc(Cc2ccc(Cl)cc2Cl)n2ccccc12 [Compound 92] |  |  |  | IC50 (PWR-1E cells; [2]): 11 µM; IC50 (NCI-H460 cells; [3]): 43 µM
6 | O=C(O)c1nn(Cc2ccc3c(c2)OCO3)c2ccccc12 [Compound 74] |  | > 100 | 290 | 
7 | COc1ccccc1Cn1nc(C(=O)O)c2ccccc21 [Compound 72] |  | 245 |  | 
8 | O=C(Nc1ccc(F)c(F)c1)c1nn(Cc2ccc(Cl)cc2Cl)c2ccccc12 [Compound 8] | > 3 |  |  | GI50 (H460 cells; [4]): 316 µM; GI50 (H460 cells; [5]): > 400 µM
9 | O=C(O)c1cn(Cc2cc(Cl)ccc2Cl)c2ccccc12 [Compound 100] |  |  | 125 | 
10 | Cc1ccc2c(c1)c(C(=O)NO)nn2Cc1ccc(Cl)cc1Cl [Compound 52] | 0.34 |  |  | 
11 | Cc1noc(C)c1Cn1nc(C(=O)O)c2ccccc21 [Compound 71] |  | > 300 |  | 
12 | CNC(=O)c1nn(Cc2c(Cl)cccc2Cl)c2ccccc12 [Compound 37] | 36 |  |  | 
13 | O=C(O)c1c2ccccc2nn1S(=O)(=O)c1ccc(Cl)cc1Cl [Compound 105] | 21 |  |  | IC50 (NCI-H460 cells; 3 day treatment): 182 µM
14 | O=C(OC1O[C@H](C(=O)O)[C@@H](O)[C@H](O)[C@H]1O)c1nn(Cc2ccc(Cl)cc2Cl)c2ccccc12 (some centres unmarked) [Compound 15] |  | 80 |  | GI50 (H460 cells; Homo sapiens, NCI-H460, 72 h, 3 day treatment, read-out: GI50 H460 cell 3 days): 316 µM; GI50 (H460 cells; Homo sapiens, NCI-H460, read-out: GI50 H460 cell 2 hr, 2 h treatment then 3 days incubation): > 400 µM
15 | O=C(O)c1nn(Cc2cc(Cl)ccc2F)c2ccccc12 [Compound 103] |  | 132 | 219 | 
16 | O=C(O)c1nn(Cc2ccc(Cl)c(Cl)c2)c2ccccc12 [Compound 82] |  | 36 | 128 | inhibition in vivo (SH rat prostate): 5%; inhibition in vivo (testes): -1.1%
17 | O=C(O)c1nn(Cc2ccc(-c3ccccc3)cc2)c2ccccc12 [Compound 22] | 25 |  |  | GI50 (H460 cells; [4]): 158 µM; GI50 (H460 cells; [5]): > 400 µM
18 | CONC(=O)c1nn(Cc2ccc(Cl)cc2Cl)c2ccccc12 [Compound 53] |  |  |  | PK [1]: 1 µg/mL; Prostate shrinkage (SH rat prostate): 6.9%; Testis shrinkage (testes): 9.2%
19 | O=C(O)c1nn(C(=O)c2ccc(Cl)cc2Cl)c2ccccc12 [Compound 98] |  |  |  | IC50 (PWR-1E cells; [2]): 4 µM
20 | N#Cc1cc(Cl)ccc1Cn1nc(C(=O)O)c2ccccc21 [Compound 95] |  | 85 | 275 | 
21 | O=C(O)c1nn(Cc2cc(C(F)(F)F)ccc2Cl)c2ccccc12 [Compound 106] |  |  | 4 | 
22 | O=C(O)c1nn(Cc2ccccc2O)c2ccccc12 [Compound 76] |  | 288 |  | 
23 | O=C(c1nn(Cc2ccc(Cl)cc2Cl)c2ccccc12)N1CCOCC1 [Compound 48] | > 10 |  |  | Prostate shrinkage (SH rat prostate): 3.3%; Testis shrinkage (testes): 4.3%
24 | O=C(O)c1nn(Cc2ccc(O)cc2)c2ccccc12 [Compound 77] |  | > 100 |  | 

Row | SMILES | IC50 (PWR-1E cells; 3 day treatment) [µM] | IC50 (PWR-1E cells; Homo sapiens, PWR-1E, 72 h) [µM] | IC50 (NCI-H460 cells; Homo sapiens, NCI-H460, 72 h) [µM] | other results
25 | O=C(O)c1nc(Cc2ccc(Cl)cc2Cl)n2ccccc12 [Compound 89] | 10 |  |  | IC50 (NCI-H460 cells; 3 day treatment): 41 µM
26 | O=Cc1nn(Cc2ccc(Cl)cc2Cl)c2ccccc12 [Compound 61] |  | 1.5 |  | 
27 | O=C(Nc1cccnc1)c1nn(Cc2ccc(Cl)cc2Cl)c2ccccc12 [Compound 51] |  |  |  | PK [1]: 0.45 µg/mL; Prostate shrinkage (SH rat prostate): 8.7%; Testis shrinkage (testes): 2.2%
28 | O=C(Nc1nccs1)c1nn(Cc2ccc(Cl)cc2Cl)c2ccccc12 [Compound 9] | > 100 |  |  | GI50 (H460 cells; [4]): > 400 µM; GI50 (H460 cells; [5]): > 400 µM
29 | O=C(O)c1nn(Cc2ccccc2Cl)c2ccccc12 [Compound 27] | 30 |  |  | 
30 | O=C(O)c1nn(Cc2cccnc2)c2ccccc12 [Compound 85] |  |  | > 600 | 
31 | CC(C)NC(=O)c1nn(Cc2ccccc2)c2ccccc12 [Compound 50] | 23 |  |  | 
32 | O=C(NCCN1CCOCC1)c1nn(Cc2c(Cl)cccc2Cl)c2ccccc12 [Compound 43] | 45 |  |  | 
33 | O=C(NCCO)c1nn(Cc2ccc(Cl)cc2Cl)c2ccccc12 [Compound 10] | 14 |  |  | GI50 (H460 cells; [4]): 50 µM; GI50 (H460 cells; [5]): 78 µM
34 | O=C(O)c1nn(Cc2ccc(Cl)nc2)c2ccccc12 [Compound 94] |  |  | > 600 | 
35 | Cc1cc(Cn2nc(C(=O)O)c3ccccc32)n(C)n1 [Compound 75] |  | > 300 | > 180 | 
36 | O=C(NC1CC1)c1nn(Cc2c(Cl)cccc2Cl)c2ccccc12 [Compound 46] | > 30 |  |  | 
37 | NC(=O)c1nn(Cc2c(Cl)cccc2Cl)c2ccccc12 [Compound 25] |  | > 100 |  | 
38 | O=C(O)c1nn(Cc2cnc(Cl)c(Cl)c2)c2ccccc12 [Compound 87] |  |  | 323 | 
39 | NNC(=O)c1nn(Cc2c(Cl)cccc2Cl)c2ccccc12 [Compound 44] | > 10 |  |  | 
40 | O=C(O)c1nn(Cc2ccc(Cl)nc2)c2ccccc12 [Compound 73] |  | > 300 |  | 
41 | CC(c1ccc(Cl)cc1Cl)n1nc(C(=O)O)c2ccccc21 (centres unmarked) [Compound 67] |  | 21 | 148 | inhibition in vivo (SH rat prostate): 18.2%; inhibition in vivo (testes): 34.9%
42 | O=C(O)c1nn(S(=O)(=O)c2ccc(Cl)cc2Cl)c2ccccc12 [Compound 104] | 19 |  |  | IC50 (NCI-H460 cells; 3 day treatment): 195 µM
43 | O=C(O)c1nn(Cc2cc(Cl)ccc2Cl)c2ccccc12 [Compound 83] |  | 38 | 126 | inhibition in vivo (SH rat prostate): 31.7%; inhibition in vivo (testes): 48%
44 | O=C(O)c1nn(Cc2ccncc2)c2ccccc12 [Compound 86] |  |  | > 600 | 
45 | O=C(O)c1nn(Cc2ccccn2)c2ccccc12 [Compound 84] |  |  | > 600 | 
46 | O=C(Nc1ccccn1)c1nn(Cc2ccc(Cl)cc2Cl)c2ccccc12 [Compound 7] |  |  |  | GI50 (H460 cells; [4]): 20 µM; GI50 (H460 cells; [5]): > 400 µM
47 | CN(C)C(=O)c1nn(Cc2ccc(Cl)cc2Cl)c2ccccc12 [Compound 49] | > 100 |  |  | 
48 | O=Cc1nc(Cc2ccc(Cl)cc2Cl)n2ccccc12 [Compound 88] |  |  |  | IC50 (PWR-1E cells; [2]): 12 µM; IC50 (NCI-H460 cells; [3]): 48 µM
